Data on eight cell lines can be found in the supplement of paper PMC10307832.

Holding throughout (assay): relative viability (nuclei count vs DMSO), 5 days (fraction); higher = more cells survive
Compound in assay [1]: CCn1c(-c2nonc2N)nc2c(C#CC(C)(C)O)ncc(OC[C@H]3CCCNC3)c21 + CS(=O)(=O)CCNCc1ccc(-c2ccc3ncnc(Nc4ccc(OCc5cccc(F)c5)c(Cl)c4)c3c2)o1 [Lapatinib] (partner 2 µM)
The method in brief:
(§1)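 Nuclei were stained with Hoechst during a one-step fixation (final 0.05% Triton X-100, 1% formaldehyde, 1 ug/ml Hoechst) carried out 5 days after dosing, then counted on 4× images. The cells, lung cancer lines in 1536-well plates, had been dosed by pin tool the day after seeding with one drug alone or a fixed anchor-drug dose plus five library-drug doses (not always all listed) in √10 steps. Relative viability is the nuclei count in treated wells divided by that in vehicle wells, and each value is the median of duplicate plates.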

Compound in assay [2]: CCn1c(-c2nonc2N)nc2c(C#CC(C)(C)O)ncc(OC[C@H]3CCCNC3)c21 + Cc1nc(NC(=O)N2CCC[C@H]2C(N)=O)sc1-c1ccnc(C(C)(C)C(F)(F)F)c1 [Alpelisib] (partner 2 µM)
In outline: as §1

Compound in the assay “BAM7 + Decitabine”: CCOC1=CC=CC=C1N=NC2=C(NN(C2=O)C3=NC(=CS3)C4=CC=CC=C4)C [BAM7] + Nc1ncn([C@H]2C[C@H](O)[C@@H](CO)O2)c(=O)n1 [Decitabine] (partner 2 µM)
In outline: as §1

Compound in the assay “BAM7 + Alpelisib”: CCOC1=CC=CC=C1N=NC2=C(NN(C2=O)C3=NC(=CS3)C4=CC=CC=C4)C [BAM7] + Cc1nc(NC(=O)N2CCC[C@H]2C(N)=O)sc1-c1ccnc(C(C)(C)C(F)(F)F)c1 [Alpelisib] (partner 2 µM)
In outline: as §1

NCI-H1355: the relative viability in assay [1] (first compound 0.01 µM) amounted to 1.03; in assay [1] (first compound 0.03162 µM) it was 0.944; in assay [1] (first compound 0.1 µM) it was 0.998; in assay [1] (first compound 0.3162 µM), 0.926; in assay [1] (first compound 1 µM) it was 1.02; in assay [2] (first compound 0.01 µM), 0.863. In addition, the relative viability in assay [2] (first compound 0.03162 µM) stood at 0.732; in assay [2] (first compound 0.1 µM), 0.786; in assay [2] (first compound 0.3162 µM), 0.825; in assay [2] (first compound 1 µM) it was 0.82; with BAM7 + Decitabine (first compound 0.5 µM), 0.357; in the assay with BAM7 + Decitabine (first compound 5 µM), 0.357. In addition, the relative viability with BAM7 + Decitabine (first compound 15.81 µM) came out at 0.319; in the assay with BAM7 + Decitabine (first compound 50 µM) it was 0.37; with BAM7 + Alpelisib (first compound 0.5 µM), 0.786; with BAM7 + Alpelisib (first compound 5 µM), 0.832; with BAM7 + Alpelisib (first compound 15.81 µM), 0.725; with BAM7 + Alpelisib (first compound 50 µM), 0.772.
NCI-H1395: the relative viability was determined as 0.815 in assay [1] (first compound 0.01 µM); 0.842 in assay [1] (first compound 0.03162 µM); 0.858 in assay [1] (first compound 0.1 µM); 0.769 in assay [1] (first compound 0.3162 µM); 0.869 in assay [1] (first compound 1 µM); 0.986 in assay [2] (first compound 0.01 µM). For the same cell line, the relative viability in assay [2] (first compound 0.03162 µM) amounted to 1.35; in assay [2] (first compound 0.1 µM), 1.01; in assay [2] (first compound 0.3162 µM), 0.79; in assay [2] (first compound 1 µM), 0.76; with BAM7 + Decitabine (first compound 0.5 µM) it was 0.729; in the assay with BAM7 + Decitabine (first compound 5 µM), 0.875. For the same cell line, the relative viability was found to be 0.707 in the assay with BAM7 + Decitabine (first compound 15.81 µM); 0.722 in the assay with BAM7 + Decitabine (first compound 50 µM); 1.23 with BAM7 + Alpelisib (first compound 0.5 µM); 1.04 in the assay with BAM7 + Alpelisib (first compound 5 µM); 1.04 with BAM7 + Alpelisib (first compound 15.81 µM); 1.24 with BAM7 + Alpelisib (first compound 50 µM).
For NCI-H1437, the relative viability in assay [1] (first compound 0.01 µM) turned out to be 0.841; in assay [1] (first compound 0.03162 µM), 0.821; in assay [1] (first compound 0.1 µM) it was 0.877; in assay [1] (first compound 0.3162 µM) it was 0.719; in assay [1] (first compound 1 µM) it was 0.795; in assay [2] (first compound 0.01 µM), 0.895. Also, the relative viability came out at 0.964 in assay [2] (first compound 0.03162 µM); 0.965 in assay [2] (first compound 0.1 µM); 0.778 in assay [2] (first compound 0.3162 µM); 0.902 in assay [2] (first compound 1 µM); 0.527 with BAM7 + Decitabine (first compound 0.5 µM); 0.572 in the assay with BAM7 + Decitabine (first compound 5 µM). Moreover, the relative viability in the assay with BAM7 + Decitabine (first compound 15.81 µM) was 0.543; with BAM7 + Decitabine (first compound 50 µM), 0.482; in the assay with BAM7 + Alpelisib (first compound 0.5 µM), 1.07; in the assay with BAM7 + Alpelisib (first compound 5 µM), 1; with BAM7 + Alpelisib (first compound 15.81 µM) it was 0.911; with BAM7 + Alpelisib (first compound 50 µM), 0.909.
In the case of NCI-H1651, the relative viability was determined as 0.816 in assay [1] (first compound 0.01 µM); 0.854 in assay [1] (first compound 0.03162 µM); 0.798 in assay [1] (first compound 0.1 µM); 0.715 in assay [1] (first compound 0.3162 µM); 0.842 in assay [1] (first compound 1 µM); 1.01 in assay [2] (first compound 0.01 µM). In addition, the relative viability in assay [2] (first compound 0.03162 µM) is 0.879; in assay [2] (first compound 0.1 µM) it was 0.937; in assay [2] (first compound 0.3162 µM), 0.917; in assay [2] (first compound 1 µM) it was 1.19; in the assay with BAM7 + Decitabine (first compound 0.5 µM) it was 0.598; in the assay with BAM7 + Decitabine (first compound 5 µM), 0.66. Further, the relative viability stood at 0.617 with BAM7 + Decitabine (first compound 15.81 µM); 0.599 in the assay with BAM7 + Decitabine (first compound 50 µM); 1.01 in the assay with BAM7 + Alpelisib (first compound 0.5 µM); 0.861 with BAM7 + Alpelisib (first compound 5 µM); 0.967 in the assay with BAM7 + Alpelisib (first compound 15.81 µM); 0.883 with BAM7 + Alpelisib (first compound 50 µM).
Take NCI-H1666: the relative viability was 0.552 in assay [1] (first compound 0.01 µM); 0.487 in assay [1] (first compound 0.03162 µM); 0.469 in assay [1] (first compound 0.1 µM); 0.521 in assay [1] (first compound 0.3162 µM); 0.508 in assay [1] (first compound 1 µM); 0.874 in assay [2] (first compound 0.01 µM). The relative viability in assay [2] (first compound 0.03162 µM) was determined as 1.1; in assay [2] (first compound 0.1 µM) it was 0.992; in assay [2] (first compound 0.3162 µM), 0.792; in assay [2] (first compound 1 µM), 0.831; with BAM7 + Decitabine (first compound 0.5 µM), 0.691; with BAM7 + Decitabine (first compound 5 µM), 0.775. Further, the relative viability with BAM7 + Decitabine (first compound 15.81 µM) came to 0.718; in the assay with BAM7 + Decitabine (first compound 50 µM), 0.677; with BAM7 + Alpelisib (first compound 0.5 µM), 1.04; with BAM7 + Alpelisib (first compound 5 µM), 0.892; in the assay with BAM7 + Alpelisib (first compound 15.81 µM), 0.9; in the assay with BAM7 + Alpelisib (first compound 50 µM), 0.984.
In the case of NCI-H1734, the relative viability worked out at 1.01 in assay [1] (first compound 0.01 µM); 1.02 in assay [1] (first compound 0.03162 µM); 0.896 in assay [1] (first compound 0.1 µM); 0.885 in assay [1] (first compound 0.3162 µM); 0.825 in assay [1] (first compound 1 µM); 0.652 in assay [2] (first compound 0.01 µM). Besides, the relative viability in assay [2] (first compound 0.03162 µM) worked out at 0.624; in assay [2] (first compound 0.1 µM), 0.631; in assay [2] (first compound 0.3162 µM), 0.655; in assay [2] (first compound 1 µM), 0.658; with BAM7 + Decitabine (first compound 0.5 µM) it was 0.515; with BAM7 + Decitabine (first compound 5 µM), 0.519. In addition, the relative viability in the assay with BAM7 + Decitabine (first compound 15.81 µM) came to 0.551; with BAM7 + Decitabine (first compound 50 µM), 0.489; with BAM7 + Alpelisib (first compound 0.5 µM), 0.74; in the assay with BAM7 + Alpelisib (first compound 5 µM) it was 0.804; in the assay with BAM7 + Alpelisib (first compound 15.81 µM) it was 0.638; in the assay with BAM7 + Alpelisib (first compound 50 µM), 0.676.
For the cell line NCI-H1755, the relative viability stood at 1.03 in assay [1] (first compound 0.01 µM); 1.02 in assay [1] (first compound 0.03162 µM); 1.03 in assay [1] (first compound 0.1 µM); 0.993 in assay [1] (first compound 0.3162 µM); 1.07 in assay [1] (first compound 1 µM); 0.943 in assay [2] (first compound 0.01 µM). Also, the relative viability in assay [2] (first compound 0.03162 µM) worked out at 0.944; in assay [2] (first compound 0.1 µM), 0.896; in assay [2] (first compound 0.3162 µM) it was 0.916; in assay [2] (first compound 1 µM), 0.981; with BAM7 + Decitabine (first compound 0.5 µM), 0.667; with BAM7 + Decitabine (first compound 5 µM), 0.774. For the same cell line, the relative viability came out at 0.711 with BAM7 + Decitabine (first compound 15.81 µM); 0.793 with BAM7 + Decitabine (first compound 50 µM); 0.994 with BAM7 + Alpelisib (first compound 0.5 µM); 0.982 with BAM7 + Alpelisib (first compound 5 µM); 0.902 in the assay with BAM7 + Alpelisib (first compound 15.81 µM); 0.948 with BAM7 + Alpelisib (first compound 50 µM).
On to NCI-H1792, for which the relative viability in assay [1] (first compound 0.01 µM) is 0.897; in assay [1] (first compound 0.03162 µM), 0.859; in assay [1] (first compound 0.1 µM) it was 0.862; in assay [1] (first compound 0.3162 µM) it was 0.757; in assay [1] (first compound 1 µM), 0.871; in assay [2] (first compound 0.01 µM), 0.776. The relative viability in assay [2] (first compound 0.03162 µM) was found to be 0.697; in assay [2] (first compound 0.1 µM), 0.667; in assay [2] (first compound 0.3162 µM), 0.596; in assay [2] (first compound 1 µM), 0.791; in the assay with BAM7 + Decitabine (first compound 0.5 µM) it was 0.557; in the assay with BAM7 + Decitabine (first compound 5 µM) it was 0.458. The relative viability came out at 0.48 in the assay with BAM7 + Decitabine (first compound 15.81 µM); 0.516 with BAM7 + Decitabine (first compound 50 µM); 0.782 with BAM7 + Alpelisib (first compound 0.5 µM); 0.85 with BAM7 + Alpelisib (first compound 5 µM); 0.624 with BAM7 + Alpelisib (first compound 15.81 µM); 0.708 with BAM7 + Alpelisib (first compound 50 µM).
